“Also recorded” adds a separate entry of the source. Read-outs that look alike come from different tables or passages of the source.
Columns and labels:
SARS-CoV-2 [1] = test: Reduction of SARS-CoV-2 viral load in Vero E6 cells (image based assay of Jin et al.); format: cell-based
Vero E6 cells = test: Cytotoxicity / cell viability in Vero E6 cells; format: cell-based
SARS-CoV-2 [2] = test: Hamster model of SARS-CoV-2 disease transmission and progression, viral load (PFU); format: in vivo, Golden Syrian Hamsters
Experimental: 24 hours prior to nasal inoculation with SARS-CoV-2, Golden Syrian Hamsters were dosed with ebselen, saline and remdesivir at 15 mg/kg. Samples were taken from nares (PFU/swab) on days 1, 2 and 3, and from the nasal turbinates and cranial & caudal lung tissue (PFU/100 mg) on day 7.

[3] = Cystic fibrosis trial (IV tobramycin + SPI-1005 0/200/400/600 BID, 21 days): FEV1; format: in vivo, human
Experimental: (§1) Thirty of 80 participants were enrolled starting in January 2019. They were Cystic fibrosis patients ages 18-70 that had acute pulmonary exacerbation or acute respiratory infections that required treatment with IV tobramycin 10 mg/kg/d for 10-21 days. They were randomized into four groups (1:1:1:1) (0, 200, 400, or 600 BID) and treated for 21 days. There were four follow-up visits for safety (adverse events, spirometry, labs), and two follow-up visits for efficacy (audiometric and vestibular). The primary endpoint was a reduction in cochleotoxic change, and the secondary endpoints was a reduction in tinnitus or vertigo severity.

[4] = Cystic fibrosis trial Part 2 Intervention: tobramycin-induced ototoxicity; format: in vivo, human
Experimental: as §1

[5] = Cystic fibrosis trial: sentinel Pk, plasma tobramycin levels (DDI); format: in vivo, human
18 common microbes = test: MIC assays against 18 common microbes (interference); format: cell-based; conditions: to support testing in CF patients
Description: (§2) We have studied the efficacy of ebselen in a number of indications including the treatment of Meniere's Disease, and in the treatment of ototoxicity in cystic fibrosis (CF) patients. Ebselen has an anti-inflammatory mechanism of action that is distinct from that of a classic corticosteroid immunosuppressive agent which can be beneficial in the treatment of respiratory viral infections. […] In addition, our Phase 2b study in cystic fibrosis (CF) patients with Pseudomonas is continuing without any safety issues. […] Our results and analysis in these other clinical studies supports the use of ebselen in the subject methods of treating or preventing conditions associated with respiratory viral infections described herein.
(§3) The anti-inflammatory mechanism of action of ebselen is unique and distinct over that of a classic corticosteroid immunosuppressive agent. […] In addition, our Phase 2b study in CF patients with Pseudomonas is continuing without any safety issues.

[6] = Meniere's Disease clinical study: auditory function; format: in vivo, human; conditions: exceeds reported improvements with corticosteroid treatment
Description: as §2, §3

[7] = Study 6.3: ebselen in mild to moderate COVID-19; format: in vivo, human; conditions: 400 to 600 mg BID for 14 to 21 days
[8] = Study 6.4: ebselen in moderate COVID-19; format: in vivo, human; conditions: 400 or 800 mg BID for 7 days
[9] = Study 6.5: ebselen in moderate to severe COVID-19 at high risk of respiratory failure; format: in vivo, human; conditions: 400 to 600 mg BID up to 21 to 28 days
[10] = Study 6.6: ebselen in severe COVID-19; format: in vivo, human; conditions: 400 or 800 mg BID for 14 days
[11] = target: COVID-19 virus main protease (M^pro) (Severe acute respiratory syndrome coronavirus 2, UniProt P0DTD1); conditions: Jin et al.; cited from earlier work
[12] = mice; Gu et al.; cited from earlier work
[13] = mice; Longenecker et al.; cited from earlier work
[14] = Solubility in aqueous solutions; conditions: 25° Celsius
nCoV2 = test: Study 6.2: ebselen in nCoV2 positive subjects with no to mild COVID-19, viral load; conditions: 400 to 600 mg BID for 7-10 days, no to mild disease
Experimental: Eligible participants are diagnosed as nCoV2 positive and enrolled for treatment within 1-5 days of appearance of symptoms. The patient is not treated with another anti-viral therapeutic agent prior to beginning of treatment. […] Randomization is stratified by age (<60 years or ≥60 years).
Ebselen is dosed as 400 to 600 mg BID for a period of 7-10 days. […] Participants receive study intervention for up to 10 days and are followed for 28 days after first dose.
Respiratory samples are taken before treatment begins and daily during treatment to assess nCoV2 viral load daily.
The primary efficacy endpoint is the time to significant reduction in pre-treatment viral load (see Zou et al.; Pan et al.). […] Other efficacy assessments are also performed and compared to baseline levels.
Follow-up assessments can be performed at 2, 4, and 8 weeks after the start of treatment. […] Extended dosing involves sub-chronic dosing of 4-12 weeks (e.g., 4, 8 or 12 weeks) with assessment of viral load until virus eliminated.

[15] = Part 2 Intervention (1:1:1:1) pooled

With `O=c1c2ccccc2[se]n1-c1ccccc1` [ebselen, 2-phenyl-1,2-benzisoselenazol-3(2H)-one] the EC50 (SARS-CoV-2 [1]; SARS-CoV-2, ebselen 100 nM to 1000 μM in DMSO or EtOH, remdesivir 1 nM to 10 μM, listed as ebselen (EtOH), read-out: EC50, reduction in viral load in Vero E6 cells) was 10.9 µM, the EC50 (SARS-CoV-2 [1]; Severe acute respiratory syndrome coronavirus 2, Vero C1008, SARS-CoV-2, ebselen 100 nM to 1000 μM in DMSO or EtOH, remdesivir 1 nM to 10 μM, read-out: EC50, reduction in viral load in Vero E6 cells) was 21.3 µM and the EC50 (SARS-CoV-2 [1]; Severe acute respiratory syndrome coronavirus 2, Vero C1008, Vero E6 cells, ebselen added in DMSO, read-out: EC50, inhibition of viral load) was 21 µM. The EC50 (SARS-CoV-2 [1]; Severe acute respiratory syndrome coronavirus 2, Vero C1008, Vero E6 cells, ebselen added in EtOH, read-out: EC50, inhibition of viral load) was 11 µM, the “inhibition of viral load (FIGS. 1A-C)” value (SARS-CoV-2 [1]; in vitro kidney cell assay (Vero E6 cells)) was “inhibited viral load” and the “cell viability at the EC50” value (Vero E6 cells) was 100%. For the same compound, the “effect on cell viability” value (Vero E6 cells; ebselen: at ranges slightly higher than EC50) was “cell viability was decreased”, the CC50 (Vero E6 cells; listed as ebselen (DMSO)) was over 1000 µM and the CC50 (Vero E6 cells; listed as ebselen (EtOH)) was over 100 µM. For the same compound, the “PFU/swab (nares) Day 1” value (SARS-CoV-2 [2]; 15 mg/kg, 24 hours prior to nasal inoculation, saline 2.7E+04) was 1.0E+04 PFU/swab, the “PFU/swab (nares) Day 3” value (SARS-CoV-2 [2]; 15 mg/kg, 24 hours prior to nasal inoculation, saline 5.5E+02) was 1.7E+02 PFU/swab and the “PFU/swab (nares) Day 2” value (SARS-CoV-2 [2]; 15 mg/kg, 24 hours prior to nasal inoculation, saline 7.5E+03) was 6.2E+03 PFU/swab. For the same compound, the “PFU/100 mg Cranial lung” value (SARS-CoV-2 [2]; 15 mg/kg, day 7, saline 4.9E+06) was 2.3E+06 PFU/100 mg, the “PFU/100 mg Turbinates” value (SARS-CoV-2 [2]; 15 mg/kg, day 7, saline 5.5E+07) was 3.6E+07 PFU/100 mg and the “PFU/100 mg Caudal lung” value (SARS-CoV-2 [2]; 15 mg/kg, day 7, saline 6.1E+06) was 6.0E+06 PFU/100 mg. For the same compound, the “samples with lower counts compared to remdesivir” value (SARS-CoV-2 [2]; Table 2, six samples) was 5 of 6, the “samples with lower counts compared to saline” value (SARS-CoV-2 [2]; Table 2, six samples) was 6 of the 6 and the “change in lung functioning (FEV1)” value ([3]; 2 and 4 weeks, cystic fibrosis patients on IV tobramycin, versus Part 1 observation study) was “improvement in lung functioning (FEV1) at both 2 and 4 weeks; also recorded: improved relative FEV1% predicted at 2 and 4 weeks”. For the same compound, the “FEV1 score Mean (SD), 2 Week” value ([3]; pooled 0/200/400/600 BID groups, baseline 46.87 (13.68), n 17) was 48.53 (14.57), the “FEV1 score Mean (SD), 4 Week” value ([3]; pooled 0/200/400/600 BID groups, baseline 46.87 (13.68), n 19) was 52.68 (22.99) and the “ototoxic change versus Part 1 Observational study” value ([4]; 4 weeks after IV tobramycin treatment) was “lower levels of ototoxic change”. The “% Responders (Bilateral), Conv + SRO” value [4, 15] was 29%, the “% Responders (Bilateral), Conventional” value [4, 15] was 5% and the “% Responders (Bilateral), DPOAE” value [4, 15] was 40%. For the same compound, the “% Responders (Bilateral), SRO” value [4, 15] was 21%, the “% Responders (Bilateral), WINT” value [4, 15] was 0% and the “% Responders (Unilateral), Conv + SRO” value [4, 15] was 29%. The “% Responders (Unilateral), Conventional” value [4, 15] was 5%, the “% Responders (Unilateral), DPOAE” value [4, 15] was 40% and the “% Responders (Unilateral), SRO” value [4, 15] was 37%. The “% Responders (Unilateral), WINT” value [4, 15] was 26%, the “% Responders, Conv + SRO” value [4, 15] was 57% and the “% Responders, DPOAE” value [4, 15] was 80%. For the same compound, the “% Responders, SRO” value [4, 15] was 58%, the “% Responders, TFI” value [4, 15] was 14% and the “% Responders, TL” value [4, 15] was 0%. For the same compound, the “% Responders, VSS” value [4, 15] was 5%, the “% Responders, WINT” value [4, 15] was 26% and the “% Responders, Conventional” value ([4]; Part 2 Intervention (1:1:1:1; 0, 200, 400, 600 BID pooled) with IV tobramycin, 4 weeks post-treatment) was 10%. The “change in plasma tobramycin levels (DDI)” value [5] was “no significant change in plasma tobramycin levels”, the “interference in MIC assays” value (18 common microbes) was “lack of interference” and the “auditory function (hearing loss, word recognition and tinnitus)” value [6] was “improvement in auditory function; also recorded: improve auditory function”. The “respiratory status and progression to severe disease” value [7] was “effective to improve in respiratory status and prevent progression to severe disease”, the “respiratory status and progression to severe disease” value [8] was “effective to improve in respiratory status and prevent progression to severe disease” and the “time to clinical improvement (NIAID ordinal scale)” value [9] was “effective to reduce time to at least a 2-grade improvement from baseline on the NIAID ordinal scale”. For the same compound, the “respiratory status / time to clinical improvement (WHO ordinal scale)” value [10] was “effective to improve in respiratory status, and/or reduce time to at least a 2-grade improvement from baseline on the WHO ordinal scale”, the “in vitro inhibition activity against M^pro protease” value [11] was “modest in vitro inhibition activity” and the “protection against tobramycin-induced ototoxicity, auditory brainstem responses” value [12] was “otoprotective and neuroprotective properties”. For the same compound, the “tinnitus and hyperacusis following amikacin-induced ototoxicity” value [13] was “improvements in tinnitus and hyperacusis”, the “solubility in aqueous solutions” value [14] was “slightly soluble” and the viral load (nCoV2) was “effective to reduce viral load”.

Reference: patent publication US20230165835A1, “METHODS OF TREATING ACUTE LUNG INJURY USING EBSELEN” (SOUND PHARMACEUTICALS INC., priority 2020, published 2023)
